Like-named read-outs stand apart in the source and are kept apart here.
How the values were obtained:
α2-adrenoceptor [1] = assay: Duration of the α2-blocking action (antagonism of detomidine mydriasis after oral pretreatment); format: in vivo; conditions: rat, equipotent doses, pretreatment 1, 2, 4, 7 or 16 hours, time for antagonist effect to fall by half
Experimental: The duration of the α2 -blocking action of the compounds was determined as follows: the antagonists were administered orally at equipotent doses to groups of 4 rats 1, 2, 4, 7 or 16 hours before induction of anaesthesia and challenge with cumulative i.v. dosing of detomidine. By calculating the percentage antagonism of the mydriatic effect of 0.1 mg/kg detomidine for each pretreatment group, a time-effect relationship was established. This in turn permitted the measurement of the time taken for the antagonist effect to fall by half.

α2-adrenoceptor [2] = biological target: T1, α2-adrenoceptor (Rattus norvegicus, UniProt P22909); assay: Relative peroral bioavailability (α2-blocking potency after peroral vs parenteral administration); format: in vivo; conditions: equipotent doses 0.3 to 3 mg/kg, 1 hour before anaesthesia
T1 construct: transmitted via postsynaptic α2 -receptors in the central nervous system; from tissue; host or cells: whole anaesthetized rat (in vivo), central nervous system
T1 sequence (P22909 1-465): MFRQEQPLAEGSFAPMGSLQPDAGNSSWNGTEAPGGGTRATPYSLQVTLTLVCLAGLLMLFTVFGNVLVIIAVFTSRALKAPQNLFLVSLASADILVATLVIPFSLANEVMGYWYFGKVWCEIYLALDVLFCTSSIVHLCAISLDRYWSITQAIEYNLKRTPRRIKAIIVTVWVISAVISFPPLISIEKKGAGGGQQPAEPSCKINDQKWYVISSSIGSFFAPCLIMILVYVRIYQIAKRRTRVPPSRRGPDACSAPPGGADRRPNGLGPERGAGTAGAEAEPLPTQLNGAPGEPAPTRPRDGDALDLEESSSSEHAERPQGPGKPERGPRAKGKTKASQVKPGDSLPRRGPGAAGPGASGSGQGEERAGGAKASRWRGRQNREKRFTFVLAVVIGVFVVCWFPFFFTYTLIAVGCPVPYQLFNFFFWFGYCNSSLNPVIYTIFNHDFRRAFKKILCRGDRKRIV
Experimental: The relative bioavailability of the antagonists when administered orally was evaluated by comparing the potency of their α2 -blocking effect after peroral and parenteral administration. The antagonists were administered at equipotent doses (0.3 to 3 mg/kg) to groups of rats 1 hour before induction of anaesthesia and challenge with detomidine as described above in relation to the measurement of duration of action.

α2-adrenoceptor [3] = assay: α2-Adrenoceptor antagonism in vivo, reversal of detomidine-induced mydriasis in anaesthetized rat; conditions: dose producing 50 per cent reversal of detomidine-induced mydriasis
Experimental: 2. α2 -Adrenoceptor antagonism in vivo
It is known that in the rat α2 -agonists induce dilatation of the pupil (mydriasis) which effect is transmitted via postsynaptic α2 -receptors in the central nervous system. In anaesthetized rat, a standard dose of an α2 -agonist, detomidine, was administered intravenously. Thereafter increasing doses of the studied antagonists were injected intravenously and the reversal of detomidine-induced mydriasis was followed. The ED50 value of the antagonist, i.e. the dose producing a 50 per cent reversal, was determined.

α1-adrenoceptor [4] = biological target: T2, α1-adrenoceptor (Rattus norvegicus, UniProt P43140); conditions: for α1-Agonism (pD2) rat vas deferens / EC50: negative logarithm of molar concentration producing 50 percent of maximal contraction; for EC50: read-out: α1-Agonism (pD2) rat vas deferens (converted)
T2 sequence (P43140 1-466): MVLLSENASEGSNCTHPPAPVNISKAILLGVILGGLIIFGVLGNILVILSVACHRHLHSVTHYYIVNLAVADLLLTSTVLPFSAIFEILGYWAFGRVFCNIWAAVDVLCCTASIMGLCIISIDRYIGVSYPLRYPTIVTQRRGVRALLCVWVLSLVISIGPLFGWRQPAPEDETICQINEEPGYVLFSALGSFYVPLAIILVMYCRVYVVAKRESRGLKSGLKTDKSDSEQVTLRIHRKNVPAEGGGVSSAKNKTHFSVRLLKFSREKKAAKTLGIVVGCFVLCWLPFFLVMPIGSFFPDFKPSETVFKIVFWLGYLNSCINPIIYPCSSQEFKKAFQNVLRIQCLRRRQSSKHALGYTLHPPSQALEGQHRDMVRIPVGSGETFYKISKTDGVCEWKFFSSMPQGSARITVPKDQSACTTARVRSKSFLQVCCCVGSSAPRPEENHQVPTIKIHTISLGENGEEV
Experimental: (§1) To obtain information also on the selectivity of the antagonist between α1 - and α2 -receptors, its ability to inhibit or stimulate α1 -receptors was determined by means of isolated epididymal portion of rat vas deferens. The reference substances were now phenylephrine, a known α1 -agonist, and prazosin, a known α1 -antagonist. To determine α1 -antagonism, muscular contraction was induced by phenylephrine and the pA2 value of the studied compound was determined as above α1 -Agonist effect is presented as the pD2 value (negative logarithm of the molar concentration of the compound producing 50 percent of maximal contraction).

α1-adrenoceptor [5] = assay: α1-Antagonism in vitro, isolated epididymal portion of rat vas deferens (vs phenylephrine); conditions: contraction induced by phenylephrine
Experimental: as §1

α2-adrenoceptor [6] = biological target: T3, α2-adrenoceptor (Mus musculus, UniProt Q01338); assay: α2-Antagonism in vitro, isolated electrically stimulated mouse vas deferens (vs detomidine)
T3 construct: isolated, electrically stimulated mouse vas deferens preparation; from tissue; host or cells: isolated mouse vas deferens
T3 sequence (Q01338 1-465): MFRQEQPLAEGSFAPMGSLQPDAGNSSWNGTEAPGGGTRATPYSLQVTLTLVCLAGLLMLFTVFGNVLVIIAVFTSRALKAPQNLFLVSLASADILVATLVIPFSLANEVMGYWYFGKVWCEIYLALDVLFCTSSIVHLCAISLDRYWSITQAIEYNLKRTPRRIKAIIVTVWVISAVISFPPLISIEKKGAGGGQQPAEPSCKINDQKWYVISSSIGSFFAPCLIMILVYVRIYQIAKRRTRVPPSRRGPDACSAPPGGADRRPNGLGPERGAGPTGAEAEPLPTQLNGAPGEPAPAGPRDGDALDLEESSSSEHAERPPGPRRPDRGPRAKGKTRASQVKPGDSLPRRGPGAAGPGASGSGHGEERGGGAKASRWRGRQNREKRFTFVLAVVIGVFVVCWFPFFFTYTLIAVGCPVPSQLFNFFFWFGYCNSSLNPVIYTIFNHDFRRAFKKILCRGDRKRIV
Experimental: 1. α2 -Antagonism in vitro
α2 -Antagonism was determined by means of isolated, electrically stimulated mouse vas deferens preparation (Marshall et al., Br. J. Pharmac. 62, 147, 151, 1978). In this model, α2 -agonist (detomidine) blocks electrically stimulated muscular contractions and the effect of the α2 -antagonist is seen by administering it prior to the agonist and by determining its pA2 value.

rats = assay: Effects on learning and memory in linear arm maze task; format: in vivo, rat; conditions: for learning and memory effect (overall): adult rats; for time to solve the task / number of errors (reentries into arms already visited): rats; for time to solve the task: effect on learning and speed to make correct choices; for number of errors (reentries into arms already visited): effect on working memory
Experimental: The linear arm maze is a modified version of radial arm maze, which is a generally used memory test in rats. […] Water was also used as control. All injections were made in a volume 1 ml/kg.
Apparatus: The maze was a wooden platform in a shape of two crosses one after another. The stem (starting arm) was 90 cm long and 12 cm wide. The five other arms (goal arms) were 50 cm long and 12 cm wide. Four goal arms were situated perpendicularly to the stem and to the fifth arm which located opposite to the stem. On either side of the stem and the arms were edges, 2.0 cm high. At the end of each goal arm a hole 1 cm deep and 3 cm in diameter, served as a food cup. The starting platform (20×20 cm) was separated from the stem by a quillotine door. The door was 12 cm high and 7 cm wide. The door frame was 20 cm high and 20 cm wide. The maze was elevated 31 cm above the floor, in a low-lighted test room which contained other objects as well as the test apparatus. The holes at the end of the goal arms were baited with three pellets of prize food (45 mg pellets Bio Serve Inc.).
Procedures: Two days prior to training, animals were placed on a food deprivation schedule that reduces their body weights to 90% of initial weights. During these days the rats were habituated to handling (three times/day), test room and prize food. On the second day they were also habituated to the unbaited maze: three to five animals from the same cage at the same time for ten minutes. On the third day the goal arms were baited, and the teaching trial, one rat at a time, was carried out. The rat received drug or distilled water and […] later it was placed in the starting platform. After ten seconds the door was opened and the rat was allowed to explore the maze until all the baits were found. The time to find all the baits and reentries made into already visited arms was recorded. This time every rate was allowed to stay in the maze at least for five minutes. On the next day the proper memory and learning testing began and continued for four days (testing days 1 to 4). Rats were given eight trials, two per day. Inter trial interval was 50 minutes. Drugs or distilled water were administered 30 minutes before the first trial of the day. Otherwise testing trials were identical to the teaching trial. All the observations were done blind so that test solutions were in coded flasks.
Statistical analysis: The results were expressed as mean time/trial/day (seconds) and mean errors/trial/day. The analysis of variance for the repeated measurements (ANOVA) was used to compare the drugs' and the testing days' effects on learning and memory.

[7] = Acute toxicity (LD50) using mice; conditions: mouse, in vivo, po
Experimental: For example, the LD50 for 7-(4-(5-fluoro-2,3-dihydro-1H-inden-2-yl)-1H-imidazole) is 100 mg/kg (p.o.).

[8] = antagonist given prior to detomidine, mouse vas deferens, read-out: α2-Antagonism (pA2 vs detomidine) mouse vas deferens (converted)

Row | Structure (SMILES) | t1/2 of α2-antagonism (α2-adrenoceptor [1]) | Peroral bioavailability (α2-adrenoceptor [2]) | α2-Antagonism ED50 (iv) (α2-adrenoceptor [3]) | α1-Agonism (pD2) rat vas deferens (α1-adrenoceptor [4]) | α1-Antagonism (pA2 vs phenylephrine) rat vas deferens (α1-adrenoceptor [5]) | Kb (α2-adrenoceptor [6]; [8]) | Kb (α2-adrenoceptor [6]) | also measured
1 | CCC1(c2c[nH]cn2)Cc2ccc(F)cc2C1 (stereo not drawn) [Compound 1, 4-(2-Ethyl-5-fluoro-2,3-dihydro-1H-inden-2-yl)-1H-imidazole] | 3 h | 81 | 0.015 mg/kg | no effect | no effect | 6.31 nM |  | 
2 | Fc1cccc2c1CC(c1c[nH]cn1)C2 (stereo not drawn) [Compound 6, 4-(4-Fluoro-2,3-dihydro-1H-inden-2-yl)-1H-imidazole] |  |  |  |  |  |  | 7.94 nM | EC50 (α1-adrenoceptor [4]): 316 nM; α1-Agonism, type of agonist (full/partial) (α1-adrenoceptor [4]; rat vas deferens): full agonist
3 | CCC1(c2cnc[nH]2)Cc2ccccc2C1 [atipamezole, reference compound] | 2 h |  | 0.01 mg/kg | no effect | 5.0 |  | 7.94 nM | learning and memory effect (overall) (rats; 0.3 mg/kg s.c. (hydrochloride)): learning and memory enhancing effects; time to solve the task (rats; 0.3 mg/kg s.c. (hydrochloride)): decreased the time to solve the task; number of errors (reentries into arms already visited) (rats; 0.3 mg/kg s.c. (hydrochloride)): decreased number of errors
4 | CCC1(c2c[nH]cn2)Cc2cc(F)c(F)cc2C1 [Compound 3, 4-(2-Ethyl-5,6-difluoro-2,3-dihydro-1H-inden-2-yl)-1H-imidazole] |  |  |  |  |  | 63.1 nM |  | 
5 | Fc1ccc2c(c1)CC(c1c[nH]cn1)C2 (stereo not drawn) [Compound 7, 4-(5-Fluoro-2,3-dihydro-1H-inden-2-yl)-1H-imidazole] | 7 h | 80 | 0.01 mg/kg |  |  |  | 10 nM | learning and memory effect (overall) (rats; 0.3 mg/kg s.c. (hydrochloride)): learning and memory enhancing effects; time to solve the task (rats; 0.3 mg/kg s.c. (hydrochloride)): decreased the time to solve the task; number of errors (reentries into arms already visited) (rats; 0.3 mg/kg s.c. (hydrochloride)): decreased number of errors; LD50 [7]: 100 mg/kg; EC50 (α1-adrenoceptor [4]): 3160 nM
6 | CC1(c2c[nH]cn2)Cc2ccc(F)cc2C1 (stereo not drawn) [Compound 2, 4-(5-Fluoro-2,3-dihydro-2-methyl-1H-inden-2-yl)-1H-imidazole] |  |  |  |  |  | 50.1 nM |  | 
7 | CCC1(c2c[nH]cn2)Cc2ccc(F)cc2C1=O (stereo not drawn) [Compound 4, 2-Ethyl-6-fluoro-2,3-dihydro-2-(1H-imidazol-4-yl)-1H-inden-1-one] | 6 h | 89 | 0.3 mg/kg | no effect | no effect | 1260 nM |  | learning and memory effect (overall) (rats; 3 mg/kg p.o. (hydrochloride)): learning and memory enhancing effects; time to solve the task (rats; 3 mg/kg p.o. (hydrochloride)): decreased the time to solve the task; number of errors (reentries into arms already visited) (rats; 3 mg/kg p.o. (hydrochloride)): decreased number of errors
8 | CCC1(c2c[nH]cn2)Cc2ccc(Cl)cc2C1=O (stereo not drawn) [Compound 5, 6-Chloro-2-ethyl-2,3-dihydro-2-(1H-imidazol-4-yl)-1H-inden-1-one] |  |  |  |  |  | 251 nM |  | 
9 | CCC1(c2c[nH]cn2)Cc2ccc(O)cc2C1 (stereo not drawn) [Compound 8, 2-Ethyl-2-(1H-imidazol-4-yl)-5-indanol] |  |  |  |  |  | 63.1 nM |  | 

Source: patent publication US5498623A, “4(5) substituted imidazoles and their preparation and use” (Orion-yhtyma Oy, priority 1991, dated 1996)
